Assay results as given in patent US20240366584A1, “COMBINATION TREATMENT OF CANCER WITH A PARP INHIBITOR AND A LIPOPHILIC STATIN” (TESARO, INC., priority 2021, published 2024).
Read-outs that look alike come from different tables or passages of the source.

Experiments:
[1] = cited from earlier work
[2] = system: participants with advanced ovarian cancer; assay: post-hoc analysis of the PRIMA clinical trial (progression free survival); format: in vivo, human; details: post hoc subgroups, Kaplan-Meier
Source text: This example describes a post-hoc analysis of the PRIMA clinical trial.
This was an exploratory post hoc analysis.
For the subgroup analyses, we performed a two-sided log-rank test using randomization stratification factors (best response to last platinum; HRD status; and time from penultimate platinum to progression) to analyze PFS (progression free survival), which was summarized with the use of Kaplan-Meier methods. We estimated hazard ratios with two-sided 95% Confidence Intervals (CIs) using a stratified Cox proportional hazards (PH) model, with the stratification factors used in randomization.
The Cox model for interaction testing also included stratification factors used in randomization as covariates.

[3] = pH 7.0, Shitara et al., Pharmacology & Therapeutics, 2006
[4] = pH 7.4, Matre et al., Vascular Health and Risk Management, 2016

Compound | log D [1, 3] | log D [1, 4] | mPFS [2] [months] | log D ([1]; pH 7.4, Shitara et al., Pharmacology & Therapeutics, 2006)
CC(C)n1c(/C=C/C(O)CC(O)CC(=O)O)c(-c2ccc(F)cc2)c2ccccc21 (stereo not drawn) [fluvastatin] | 1.75 | 1.75 |  | 
CC[C@H](C)C(=O)O[C@H]1C[C@@H](C)C=C2C=C[C@H](C)[C@H](CC[C@@H]3C[C@@H](O)CC(=O)O3)[C@H]21 [lovastatin] | 3.91 | 2.59 |  | 
NC(=O)c1cccc2cn(-c3ccc([C@@H]4CCCNC4)cc3)nc12 [niraparib] |  |  | 13.7 | 
O=C(O)C[C@H](O)C[C@H](O)/C=C/c1c(C2CC2)nc2ccccc2c1-c1ccc(F)cc1 [pitavastatin] | 1.50 | 1.50 |  | 
CC[C@H](C)C(=O)O[C@H]1C[C@H](O)C=C2C=C[C@H](C)[C@H](CC[C@@H](O)C[C@@H](O)CC(=O)O)[C@H]21 [pravastatin] | −0.47 |  |  | 
CC(C)c1nc(N(C)S(C)(=O)=O)nc(-c2ccc(F)cc2)c1/C=C/[C@@H](O)C[C@@H](O)CC(=O)O [rosuvastatin] |  |  |  | −0.25 to −0.50
